Assay results as given in publication PMC7587356, “High-Throughput Screening for Inhibitors of the SARS-CoV-2 Protease Using a FRET-Biosensor” (Molecules, 2020).
Read-outs that look alike come from different tables or passages of the source.

Biological target: SARS-CoV-2 3CLpro (Severe acute respiratory syndrome coronavirus 2, UniProt P0DTD1)
Experiment: biochemical
Format: biochemical
Set-up: Replicate_1 / Replicate_2 / mean / mean (LOPAC_screen_w_protease): unit not given here
Conditions: for mean (LOPAC screen with protease) / Replicate_1 (LOPAC screen with protease) / Replicate_2 (LOPAC screen with protease): primary screen at 5 µM
[1] = sheet LOPAC_screen_w_protease, primary screen with protease, compound at 5 µM, mean of two replicates
[2] = sheet LOPAC_screen_w_protease, primary screen with protease, compound at 5 µM, replicate 1
[3] = sheet LOPAC_screen_w_protease, primary screen with protease, compound at 5 µM, replicate 2
[4] = sheet LOPAC_screen_w_protease, primary screen with protease, mean of two replicates
[5] = sheet LOPAC_screen_w_protease, primary screen with protease, replicate 1
[6] = sheet LOPAC_screen_w_protease, primary screen with protease, replicate 2
[7] = sheet LOPAC_screen_w_protease, LOPAC1280 primary screen at 5 µM, with protease, mean of the two replicates
[8] = sheet LOPAC_screen_w_protease, LOPAC1280 primary screen at 5 µM, with protease, replicate 1
[9] = sheet LOPAC_screen_w_protease, LOPAC1280 primary screen at 5 µM, with protease, replicate 2
[10] = sheet LOPAC_screen_w_protease, mean of two replicates
[11] = sheet LOPAC_screen_w_protease, replicate 1
[12] = sheet LOPAC_screen_w_protease, replicate 2
[13] = sheet LOPAC_screen_w_protease, primary screen of LOPAC1280 at 5 µM with protease, mean of the two replicates
[14] = sheet LOPAC_screen_w_protease, primary screen of LOPAC1280 at 5 µM with protease, replicate 1
[15] = sheet LOPAC_screen_w_protease, primary screen of LOPAC1280 at 5 µM with protease, replicate 2
[16] = sheet LOPAC_screen_w_protease, LOPAC1280 at 5 µM, mean of two replicates
[17] = sheet LOPAC_screen_w_protease, LOPAC1280 at 5 µM, replicate 1
[18] = sheet LOPAC_screen_w_protease, LOPAC1280 at 5 µM, replicate 2
[19] = LOPAC1280 primary screen with protease, 5 µM compound, mean of two replicates
[20] = LOPAC1280 primary screen with protease, 5 µM compound, replicate 1
[21] = LOPAC1280 primary screen with protease, 5 µM compound, replicate 2
[22] = LOPAC1280 primary screen with protease, 5 µM compound, mean of the two replicates
[23] = sheet LOPAC_screen_w_protease, LOPAC1280 primary screen with protease, 5 µM compound, mean of the two replicates
[24] = sheet LOPAC_screen_w_protease, LOPAC1280 primary screen with protease, 5 µM compound, replicate 1
[25] = sheet LOPAC_screen_w_protease, LOPAC1280 primary screen with protease, 5 µM compound, replicate 2

`Cl.NC1(C(=O)O)CCCCC1` was tested, and the mean [1] was 2.729, the Replicate_1 [2] was 1.961 and the Replicate_2 [3] was 3.496.

`COc1ccc2c(c1)c(CC(=O)O)c(C)n2Cc1ccc(F)cc1` was tested, and the mean [4] was 2.348, the Replicate_1 [5] was 3.38 and the Replicate_2 [6] was 1.3165.

`CC1CN(S(=O)(=O)c2cccc3cnccc23)CCN1.Cl.Cl` (stereo not shown) showed a mean [4] of 2.412, a Replicate_1 [5] of 3.532 and a Replicate_2 [6] of 1.292.

For `COc1ccc2c(c1)c(CC(=O)O)c(C)n2C(=O)c1ccccc1`, the mean [4] was 2.541, the Replicate_1 [5] was 2.008 and the Replicate_2 [6] was 3.073.

In the case of `CCN(CC)C(C)C(=O)N1c2ccccc2Sc2ccccc21.Cl` (stereo not shown), the mean [1] is reported as 2.78, the Replicate_1 [2] is reported as 5.208 and the Replicate_2 [3] is reported as 0.3523.

Molecule `CSc1nc(N)c2ncn([C@@H]3O[C@H](COP(=O)([O-])OP(=O)([O-])OP(=O)([O-])[O-])[C@@H](O)[C@H]3O)c2n1.[Na+].[Na+].[Na+].[Na+]` has a mean [4] of 2.299, a Replicate_1 [5] of 2.88 and a Replicate_2 [6] of 1.718.

Molecule `Cl.Fc1ccc(C(OCCCc2c[nH]cn2)c2ccc(F)cc2)cc1` has a mean [1] of 2.8, a Replicate_1 [2] of 1.774 and a Replicate_2 [3] of 3.825.

For `Cl.O=C(OC1CCN(CCCl)CC1)C(c1ccccc1)c1ccccc1`, the mean [4] was 2.3143, the Replicate_1 [5] was 3.423 and the Replicate_2 [6] was 1.205.

`Cc1cccc(C#Cc2ccccc2)n1.Cl` gave a mean [1] of 3.1043, a Replicate_1 [2] of 2.241 and a Replicate_2 [3] of 3.968.

Molecule `Cl.Nc1ccn([C@@H]2O[C@H](CO)[C@@H](O)[C@@H]2O)c(=O)n1` has a mean [4] of 2.239, a Replicate_1 [5] of 1.947 and a Replicate_2 [6] of 2.5319.

`CC(=N)NCCC[C@H](N)C(=O)O.Cl` showed a mean [1] of 2.835, a Replicate_1 [2] of 2.586 and a Replicate_2 [3] of 3.084.

For `COc1cccc(C(=O)NCCN2CCN(c3ccc(Cl)cc3)CC2)c1`, the mean [4] was 2.269, the Replicate_1 [5] was 1.008 and the Replicate_2 [6] was 3.529.

`C[C@H](O)[C@H](O)[C@H]1CNc2nc(N)[nH]c(=O)c2N1.Cl` was tested, and the mean [1] was 3.136, the Replicate_1 [2] was 3.694 and the Replicate_2 [3] was 2.577.

Work on `Nc1ncnc2c1ncn2[C@@H]1O[C@H](COP(=O)(O)CP(=O)(O)OP(=O)([O-])[O-])[C@H](O)C1O.[Li+].[Li+]` (stereo partly shown) yielded a mean [1] of 2.729, a Replicate_1 [2] of 1.677 and a Replicate_2 [3] of 3.782.

17alpha-hydroxyprogesterone was tested, and the mean [4] was 2.147 and the Replicate_1 [5] was 1.557.

Work on `Cl.NCCC[C@](N)(C(=O)O)C(F)F` (racemic) yielded a mean [1] of 3.129, a Replicate_1 [2] of 3.2986 and a Replicate_2 [3] of 2.959.

In the case of `COC(=O)C(N)Cc1ccc(Cl)cc1.Cl` (racemic), the mean [7] is reported as 0.6507, the Replicate_1 [8] is reported as 2.428 and the Replicate_2 [9] is reported as -1.1263.

`CC(N)c1cccc(Cl)c1Cl.Cl` (racemic) showed a mean [4] of 2.411, a Replicate_1 [5] of 4.03 and a Replicate_2 [6] of 0.7923.

With `CC(N)(Cc1ccc(O)c(O)c1)C(=O)O` (racemic) the “mean (LOPAC screen with protease)” value [10] was 6.44, the “Replicate_1 (LOPAC screen with protease)” value [11] was 5.736 and the “Replicate_2 (LOPAC screen with protease)” value [12] was 7.145.

With `CCCCCCCCCC(=O)NC(CN1CCOCC1)[C@H](O)c1ccccc1.Cl` (mixture of isomers) the mean [7] was 0.5952, the Replicate_1 [8] was 1.232 and the Replicate_2 [9] was -0.042.

With `COC(=O)C(C)(N)Cc1ccc(O)cc1.Cl` (racemic) the mean [1] was 2.971, the Replicate_1 [2] was 4.293 and the Replicate_2 [3] was 1.648.

In the case of `CCCCCCCCCCCCCCCC(=O)NCC(COP(=O)([O-])OCC[N+](C)(C)C)OCC` (racemic), the mean [13] is reported as 3.428, the Replicate_1 [14] is reported as 7.48 and the Replicate_2 [15] is reported as -0.6245.

Molecule `CCCCCCCCCCCCCCCCCC(=O)NCC(COP(=O)([O-])OCC[N+](C)(C)C)OCC` (racemic) has a mean [1] of 3.086, a Replicate_1 [2] of 5.031 and a Replicate_2 [3] of 1.141.

`NC(CP(=O)(O)O)C(=O)O` (racemic) [(±)-2-Amino-3-phosphonopropionic acid] showed a mean [1] of 3.099, a Replicate_1 [2] of 4.251 and a Replicate_2 [3] of 1.946.

`NC(CCP(=O)(O)O)C(=O)O` (racemic) [(±)-2-Amino-4-phosphonobutyric acid] gave a mean [16] of 1.206, a Replicate_1 [17] of 2.762 and a Replicate_2 [18] of -0.351.

In the case of `NC(CCCP(=O)(O)O)C(=O)O` (racemic) [(±)-2-Amino-5-phosphonopentanoic acid], the “mean (LOPAC_screen_w_protease)” value [19] is reported as 1.558, the “Replicate_1 (LOPAC_screen_w_protease)” value [20] is reported as 1.59 and the “Replicate_2 (LOPAC_screen_w_protease)” value [21] is reported as 1.526.

Molecule `NC(CCCCCP(=O)(O)O)C(=O)O` (racemic) [(±)-2-Amino-7-phosphonoheptanoic acid] has a mean [13] of 3.542, a Replicate_1 [14] of 3.653 and a Replicate_2 [15] of 3.43.

With `Br.Oc1cc2c(c(Cl)c1O)CCNCC2c1ccccc1` (racemic) [(±)-6-Chloro-PB hydrobromide] the “mean (LOPAC screen with protease)” value [10] was 66.2827, the “Replicate_1 (LOPAC screen with protease)” value [11] was 64.3769 and the “Replicate_2 (LOPAC screen with protease)” value [12] was 68.1884.

`Br.CCCN(CCC)C1CCc2ccc(O)cc2C1` (racemic) [(±)-7-Hydroxy-DPAT hydrobromide] was tested, and the “mean (LOPAC_screen_w_protease)” value [19] was 1.681, the “Replicate_1 (LOPAC_screen_w_protease)” value [20] was 3.951 and the “Replicate_2 (LOPAC_screen_w_protease)” value [21] was -0.5891.

`Br.CCCN(CCC)C1CCc2cccc(O)c2C1` (racemic) [(±)-8-Hydroxy-DPAT hydrobromide] was tested, and the “mean (LOPAC_screen_w_protease)” value [22] was 1.82, the “Replicate_1 (LOPAC_screen_w_protease)” value [20] was 3.36 and the “Replicate_2 (LOPAC_screen_w_protease)” value [21] was 0.2793.

Work on `Br.Cc1o[nH]c(=O)c1CC(N)C(=O)O` (racemic) [(±)-AMPA hydrobromide] yielded a mean [4] of 2.246, a Replicate_1 [5] of 3.765 and a Replicate_2 [6] of 0.7264.

For `CC1CCN=C(N)S1.Cl` (racemic) [(±)-AMT hydrochloride], the Replicate_1 was 3.477, the Replicate_2 was 0.9466 and the mean was 2.212.

Molecule `NCC(CC(=O)O)c1ccc(Cl)cc1` (racemic) [(±)-Baclofen] has a mean [4] of 2.345, a Replicate_1 [5] of 1.225 and a Replicate_2 [6] of 3.465.

`COC(=O)C1=C(C)NC(C)=C([N+](=O)[O-])C1c1ccccc1C(F)(F)F` (racemic) [(±)-Bay K 8644] showed a mean [1] of 3.088, a Replicate_1 [2] of 2.534 and a Replicate_2 [3] of 3.642.

`CN(C)CCC(c1ccc(Br)cc1)c1ccccn1.O=C(O)/C=C\C(=O)O` (racemic) [(±)-Brompheniramine maleate] showed a mean [1] of 2.6339, a Replicate_1 [2] of 2.5605 and a Replicate_2 [3] of 2.707.

With `CC(C)(C)C1(O)CCN2CC3c4ccccc4CCc4cccc(c43)C2C1.Cl` (racemic) [(±)-Butaclamol hydrochloride] the Replicate_1 was 4.433, the Replicate_2 was 5.727 and the mean was 5.08.

Work on `CC(C)(C)NCC(O)COc1cccc2[nH]c(=O)[nH]c12.Cl` (racemic) [(±)-CGP-12177A hydrochloride] yielded a mean [16] of 1.308, a Replicate_1 [17] of 3.897 and a Replicate_2 [18] of -1.282.

`O=C(O)C1CN(CCCP(=O)(O)O)CCN1` (racemic) [(±)-CPP] gave a mean [23] of 4.122, a Replicate_1 [24] of 5.3739 and a Replicate_2 [25] of 2.869.

`CN(C)CCC(c1ccc(Cl)cc1)c1ccccn1.O=C(O)/C=C\C(=O)O` (racemic) [(±)-Chlorpheniramine maleate] gave a Replicate_1 of 0.5322, a Replicate_2 of -0.472 and a mean of 0.03007.

Work on `COc1cc(CC(C)N)c(OC)cc1I.Cl` (racemic) [(±)-DOI hydrochloride] yielded a Replicate_1 of 4.323, a Replicate_2 of 2.796 and a mean of 3.56.

With `CNCC(O)c1ccc(O)c(O)c1.Cl` (racemic) [(±)-Epinephrine hydrochloride] the Replicate_1 was 3.211, the Replicate_2 was 1.4095 and the mean was 2.31.

Work on `NC1CCN(O)C1=O` (racemic) [(±)-HA-966] yielded a Replicate_1 of 0.2172, a Replicate_2 of 1.666 and a mean of 0.9415.

`N[C@H](C(=O)O)c1cc(O)no1` (racemic) [(±)-Ibotenic acid] gave a mean [7] of 0.7432, a Replicate_1 [8] of 1.025 and a Replicate_2 [9] of 0.4611.

For `CC(C)Cc1ccc(C(C)C(=O)O)cc1` (racemic) [(±)-Ibuprofen], the “mean (LOPAC_screen_w_protease)” value [22] was 1.9945, the “Replicate_1 (LOPAC_screen_w_protease)” value [20] was 3.023 and the “Replicate_2 (LOPAC_screen_w_protease)” value [21] was 0.9655.

Work on `CC(C)NCC(O)c1ccc(O)c(O)c1.Cl` (racemic) [(±)-Isoproterenol hydrochloride] yielded a Replicate_1 [2] of 3.707 and a Replicate_2 [3] of 1.7371.

In the case of `COc1ccc(CCN(C)CCCC(C#N)(c2cc(OC)c(OC)c(OC)c2)C(C)C)cc1OC.Cl` (racemic) [(±)-Methoxyverapamil hydrochloride], the “mean (LOPAC_screen_w_protease)” value [22] is reported as 2.071, the “Replicate_1 (LOPAC_screen_w_protease)” value [20] is reported as 2.317 and the “Replicate_2 (LOPAC_screen_w_protease)” value [21] is reported as 1.826.

For `C[C@@H]1O[C@H](C[N+](C)(C)C)C[C@H]1O.[Cl-]` (racemic) [(±)-Muscarine chloride], the mean [23] was 5.0033, the Replicate_1 [24] was 6.646 and the Replicate_2 [25] was 3.361.
